Reference: ChEMBL document CHEMBL5725746, “Spiro-thiazolones” (2018)

Target: Vasopressin V1a receptor (Homo sapiens, UniProt P37288)
Assay: competition binding assay: The human V1a receptor was cloned by RT-PCR from total human liver RNA. The coding sequence was subcloned in an expression vector after sequencing to confirm the identity of the amplified sequence. […] Cell membranes were prepared from HEK293 cells transiently transfected with the expression vector and grown in 20 liter fermenters with the following protocol.50 g of cells are re-suspended in 30 ml freshly prepared ice cold Lysis buffer (50 mM HEPES, 1 mM EDTA, 10 mM MgCl2 adjusted to pH=7.4+complete cocktail of protease inhibitor (Roche Diagnostics)). Homogenized with Polytron for 1 min and sonicated on ice for 2×2 minutes at 80% intensity (Vibracell sonicator). The preparation is centrifuged 20 min at 500 g at 4° C., the pellet is discarded and the supernatant centrifuged 1 hour at 43,000 g at 4° C. (19,000 rpm). The pellet is re-suspended in 12.5 ml Lysis buffer+12.5 ml Sucrose 20% and homogenized using a Polytron for 1-2 min. The protein concentration is determined by the Bradford method and aliquots are stored at −80° C. until use. For binding studies 60 mg Yttrium silicate SPA beads (Amersham) are mixed with an aliquot of membrane in binding buffer (50 mM Tris, 120 mM NaCl, 5 mM KCl, 2 mM CaCl2, 10 mM MgCl2) for 15 minutes with mixing. […]

Vasopressin V1a receptor, sequence (P37288 whole entry): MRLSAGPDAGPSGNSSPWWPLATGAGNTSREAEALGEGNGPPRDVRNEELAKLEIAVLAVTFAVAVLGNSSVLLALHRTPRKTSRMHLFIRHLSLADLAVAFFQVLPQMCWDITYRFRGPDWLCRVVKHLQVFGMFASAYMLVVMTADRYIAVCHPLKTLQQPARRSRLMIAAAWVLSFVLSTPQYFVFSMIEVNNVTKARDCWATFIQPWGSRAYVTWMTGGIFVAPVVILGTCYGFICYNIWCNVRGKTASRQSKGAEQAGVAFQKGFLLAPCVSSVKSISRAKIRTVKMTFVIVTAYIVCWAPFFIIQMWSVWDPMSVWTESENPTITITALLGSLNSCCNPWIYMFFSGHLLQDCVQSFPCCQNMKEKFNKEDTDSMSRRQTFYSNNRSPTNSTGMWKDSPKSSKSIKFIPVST

| Ki | Structure (SMILES) |
| --- | --- |
| 3.16 nM | C/C(=C1\SC(N2CCC3(CC2)OCc2ccccc23)=NC1=O)c1ccc(Cl)nc1 |
| 1 nM | C/C(=C1/SC(N2CCC3(CC2)OCc2ccccc23)=NC1=O)c1nccs1 |
